Results published in PubChem BioAssay AID1963425 (Molecular Pharmacology Branch, DTP, NCI, 2024).
Where “and” joins values, the source holds several entries; their conditions need not be identical. Equal entries are not always repeated.

Tested on: 323965-272-R-J2-PDC complex spheroid growth, % test/control
Experiment: Anticancer human tumor 323965-272-R-J2-PDC patient-derived pancreatic carcinoma cell line growth inhibition [Asc]
Conditions: for viability, T/C: stronger effect = lower value
Procedure, shortened: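 Tumor cells were grown as multicellular spheroids with stromal HUVEC and mesenchymal stem cells and treated singly or in combination. Concentrations fell in half-log steps from the clinical Cmax, or from 10 microM where none was known.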

[1] = curve of first compound, second compound 0.0316 µM
[2] = curve of first compound, second compound 0.1 µM
[3] = curve of first compound, second compound 0.316 µM
[4] = curve of first compound, second compound 1 µM
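Further: compound exposure lasted 7 days starting three days after spheroid seeding.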
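Wherever viability, T/C is given: 100% = DMSO vehicle control wells with viability set relative to vehicle.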

Question: What does the source list for `CCN1C(C(=O)NC23CCC(C(=O)O)(CC2)CC3)C(c2cccc(Cl)c2F)C2(C(=O)Nc3cc(Cl)ccc32)C12CCCCC2` (stereo unspecified) + CNC(C)C(=O)NC1CN(S(=O)(=O)c2cccc(S(=O)(=O)N3CCC4CCC(C(=O)NC(c5ccccc5)c5ccccc5)N4C(=O)C(NC(=O)C(C)NC)C3)c2)CCC2CCC(C(=O)NC(c3ccccc3)c3ccccc3)N2C1=O?
Answer: IC50 (curve of first compound, second compound 0.00316 µM): > 3 µM; IC50 (curve of first compound, second compound 0.01 µM): > 3 µM; IC50 [1]: > 3 µM; IC50 [2]: > 3 µM; IC50 [3]: > 3 µM; IC50 [4]: > 3 µM; viability, T/C (second compound 0.00316 µM, first compound 0.00949 µM): 107%; viability, T/C (second compound 0.00316 µM, first compound 0.03 µM): 93.6%; viability, T/C (second compound 0.00316 µM, first compound 0.0949 µM): 98.2%; viability, T/C (second compound 0.00316 µM, first compound 0.3 µM): 93.1%; viability, T/C (second compound 0.00316 µM, first compound 0.949 µM): 105%; viability, T/C (second compound 0.00316 µM, first compound 3 µM): 89.3%; viability, T/C (second compound 0.01 µM, first compound 0.00949 µM): 110%; viability, T/C (second compound 0.01 µM, first compound 0.03 µM): 97.8%; viability, T/C (second compound 0.01 µM, first compound 0.0949 µM): 101%; viability, T/C (second compound 0.01 µM, first compound 0.3 µM): 93.5%; viability, T/C (second compound 0.01 µM, first compound 0.949 µM): 97%; viability, T/C (second compound 0.01 µM, first compound 3 µM): 89.7%; viability, T/C (second compound 0.0316 µM, first compound 0.00949 µM): 99.9%; viability, T/C (second compound 0.0316 µM, first compound 0.03 µM): 99.1%; viability, T/C (second compound 0.0316 µM, first compound 0.0949 µM): 105%; viability, T/C (second compound 0.0316 µM, first compound 0.3 µM): 101%; viability, T/C (second compound 0.0316 µM, first compound 0.949 µM): 92.2%; viability, T/C (second compound 0.0316 µM, first compound 3 µM): 82.7%; viability, T/C (second compound 0.1 µM, first compound 0.00949 µM): 116%; viability, T/C (second compound 0.1 µM, first compound 0.03 µM): 97.7%; viability, T/C (second compound 0.1 µM, first compound 0.0949 µM): 97.8%; viability, T/C (second compound 0.1 µM, first compound 0.3 µM): 104%; viability, T/C (second compound 0.1 µM, first compound 0.949 µM): 87.5%; viability, T/C (second compound 0.1 µM, first compound 3 µM): 83.9%; viability, T/C (second compound 0.316 µM, first compound 0.00949 µM): 93%; viability, T/C (second compound 0.316 µM, first compound 0.03 µM): 81.6%; viability, T/C (second compound 0.316 µM, first compound 0.0949 µM): 94.8%; viability, T/C (second compound 0.316 µM, first compound 0.3 µM): 93.3%; viability, T/C (second compound 0.316 µM, first compound 0.949 µM): 95.7%; viability, T/C (second compound 0.316 µM, first compound 3 µM): 86.2%; viability, T/C (second compound 1 µM, first compound 0.00949 µM): 90.8%; viability, T/C (second compound 1 µM, first compound 0.03 µM): 87.6%; viability, T/C (second compound 1 µM, first compound 0.0949 µM): 94.7%; viability, T/C (second compound 1 µM, first compound 0.3 µM): 85.5%; viability, T/C (second compound 1 µM, first compound 0.949 µM): 89.5%; viability, T/C (second compound 1 µM, first compound 3 µM): 76.6%

Question: Which results are given for `C=CC(=O)N1CCN(c2nc(=O)n(-c3c(C)ccnc3C(C)C)c3nc(-c4c(O)cccc4F)c(F)cc23)C(C)C1` (stereo unspecified) + Cc1c(S(C)(=O)=O)c(-c2cc(F)cc(N3CCN(c4ccc(NS(=O)(=O)c5ccc(NC(CCN6CCC(C(=O)OCCCP(=O)(O)O)CC6)CSc6ccccc6)c(S(=O)(=O)C(F)(F)F)c5)cc4)CC3)c2)c(-c2ccc(Cl)cc2)n1C(C)C?
Answer: IC50 [1]: > 10 µM; IC50 [2]: > 10 µM; IC50 [3]: > 10 µM; IC50 [4]: > 10 µM; IC50 (curve of first compound, second compound 3.16 µM): 0.0793 µM; IC50 (curve of first compound, second compound 10 µM): < 0.0316 µM; viability, T/C (second compound 0.0316 µM, first compound 0.0316 µM): 82.1%; viability, T/C (second compound 0.0316 µM, first compound 0.1 µM): 64.8%; viability, T/C (second compound 0.0316 µM, first compound 0.316 µM): 65.9%; viability, T/C (second compound 0.0316 µM, first compound 1 µM): 62.3%; viability, T/C (second compound 0.0316 µM, first compound 3.16 µM): 63.7%; viability, T/C (second compound 0.0316 µM, first compound 10 µM): 67%; viability, T/C (second compound 0.1 µM, first compound 0.0316 µM): 74.3%; viability, T/C (second compound 0.1 µM, first compound 0.1 µM): 64.4%; viability, T/C (second compound 0.1 µM, first compound 0.316 µM): 68%; viability, T/C (second compound 0.1 µM, first compound 1 µM): 64.2%; viability, T/C (second compound 0.1 µM, first compound 3.16 µM): 66.7%; viability, T/C (second compound 0.1 µM, first compound 10 µM): 56.8%; viability, T/C (second compound 0.316 µM, first compound 0.0316 µM): 76.8%; viability, T/C (second compound 0.316 µM, first compound 0.1 µM): 60.1%; viability, T/C (second compound 0.316 µM, first compound 0.316 µM): 56.1%; viability, T/C (second compound 0.316 µM, first compound 1 µM): 59%; viability, T/C (second compound 0.316 µM, first compound 3.16 µM): 58.6%; viability, T/C (second compound 0.316 µM, first compound 10 µM): 53.5%; viability, T/C (second compound 1 µM, first compound 0.0316 µM): 65.3%; viability, T/C (second compound 1 µM, first compound 0.1 µM): 59.5%; viability, T/C (second compound 1 µM, first compound 0.316 µM): 57%; viability, T/C (second compound 1 µM, first compound 1 µM): 54.5%; viability, T/C (second compound 1 µM, first compound 3.16 µM): 61.4%; viability, T/C (second compound 1 µM, first compound 10 µM): 46%; viability, T/C (second compound 3.16 µM, first compound 0.0316 µM): 62.2%; viability, T/C (second compound 3.16 µM, first compound 0.1 µM): 47.4%; viability, T/C (second compound 3.16 µM, first compound 0.316 µM): 43.2%; viability, T/C (second compound 3.16 µM, first compound 1 µM): 38.4%; viability, T/C (second compound 3.16 µM, first compound 3.16 µM): 43.8%; viability, T/C (second compound 3.16 µM, first compound 10 µM): 44%; viability, T/C (second compound 10 µM, first compound 0.0316 µM): 48.2%; viability, T/C (second compound 10 µM, first compound 0.1 µM): 40.9%; viability, T/C (second compound 10 µM, first compound 0.316 µM): 39.7%; viability, T/C (second compound 10 µM, first compound 1 µM): 40.5%; viability, T/C (second compound 10 µM, first compound 3.16 µM): 44.9%; viability, T/C (second compound 10 µM, first compound 10 µM): 39%

Question: Which results are given for `Cc1nc(N2CCC3(CC2)COC(C)C3N)c(CO)nc1Sc1ccnc(N)c1Cl` (stereo unspecified)?
Answer: viability, T/C (compound 0.00949 µM): 102% and 96% and 110%; viability, T/C (compound 0.03 µM): 83.6% and 82.4% and 93.1%; viability, T/C (compound 0.0949 µM): 78.5% and 71.7% and 79.6%; viability, T/C (compound 0.3 µM): 63.5% and 73.1% and 66%; viability, T/C (compound 0.949 µM): 54.4% (2×) and 55%; viability, T/C (compound 3 µM): 50.1% and 45.6% and 49.1%; IC50 (curve of compound): 2.62 µM and 1.92 µM and 2.5 µM
